Holding throughout (type): in vivo
The test system of assay [1] is Crabgrass (Digitaria sanguinalis). Briefly: Post-Emergent Test, herbicidal effectiveness. Particulars: post-emergence, 504 h, 33 micrograms per cm^2, 3 weeks, 0-to-100 scale, read-out: Herbicidal Effectiveness, % Control Post, C.
In assay [2] the test system is Lambsquarter (Chenopodium album). Briefly: Post-Emergent Test, herbicidal effectiveness. Particulars: post-emergence, 504 h, 33 micrograms per cm^2, 3 weeks, 0-to-100 scale, read-out: Herbicidal Effectiveness, % Control Post, L.
Assay [3] relates to Wild Oats (Avena fatua). Briefly: Post-Emergent Test, herbicidal effectiveness. As to conditions: post-emergence, 504 h, 33 micrograms per cm^2, 3 weeks, 0-to-100 scale, read-out: Herbicidal Effectiveness, % Control Post, O.
The subject of assay [4] is Mustard (Brassica arvensis). As to the kind of experiment: Post-Emergent Test, herbicidal effectiveness. As to conditions: post-emergence, 504 h, 33 micrograms per cm^2, 3 weeks, 0-to-100 scale.
The subject of assay [5] is Pigweed (Amaranthus retroflexus). As to the kind of experiment: Post-Emergent Test, herbicidal effectiveness. As to conditions: post-emergence, 504 h, 33 micrograms per cm^2, 3 weeks, 0-to-100 scale, read-out: Herbicidal Effectiveness, % Control Post, P.
For assay [6], the system named is Watergrass (Echinochloa). As to the kind of experiment: Post-Emergent Test, herbicidal effectiveness. As to conditions: post-emergence, 504 h, 33 micrograms per cm^2, 3 weeks, 0-to-100 scale, read-out: Herbicidal Effectiveness, % Control Post, W.
The subject of assay [7] is Crabgrass (Digitaria sanguinalis). Briefly: Pre-Emergent Test, herbicidal effectiveness. Particulars: pre-emergence, 504 h, 33 micrograms per cm^2, 3 weeks, 0-to-100 scale, read-out: Herbicidal Effectiveness, % Control Pre, C. As to the method:
(§1) An acetone solution of the test compound was prepared by mixing 750 mg of the compound, 220 mg of a nonionic surfactant and 25 ml of acetone. This solution was added to approximately 125 ml of water containing 156 mg of surfactant.
(§2) Seeds of the test vegetation were planted in a pot of soil and the test solution was sprayed uniformly onto the soil surface at a dose of 33 micrograms/cm^2. The pot was watered and placed in a greenhouse. […] At the end of this period, the herbicidal effectiveness of the compound was rated based on the physiological observations. A 0-to-100 scale was used, 0 representing no phytotoxicity, 100 representing complete kill.

The test system of assay [8] is Lambsquarter (Chenopodium album). As to the kind of experiment: Pre-Emergent Test, herbicidal effectiveness. Particulars: pre-emergence, 504 h, 33 micrograms per cm^2, 3 weeks, 0-to-100 scale, read-out: Herbicidal Effectiveness, % Control Pre, L. How it is done: as §1, §2
For assay [9], the system named is Wild Oats (Avena fatua). Briefly: Pre-Emergent Test, herbicidal effectiveness. Particulars: pre-emergence, 504 h, 33 micrograms per cm^2, 3 weeks, 0-to-100 scale, read-out: Herbicidal Effectiveness, % Control Pre, O. How it is done: as §1, §2
The subject of assay [10] is Mustard (Brassica arvensis). As to the kind of experiment: Pre-Emergent Test, herbicidal effectiveness. As to conditions: pre-emergence, 504 h, 33 micrograms per cm^2, 3 weeks, 0-to-100 scale. How it is done:
as §1, §2

For assay [11], the system named is Pigweed (Amaranthus retroflexus). Briefly: Pre-Emergent Test, herbicidal effectiveness. Particulars: pre-emergence, 504 h, 33 micrograms per cm^2, 3 weeks, 0-to-100 scale, read-out: Herbicidal Effectiveness, % Control Pre, P. How it is done: as §1, §2
The test system of assay [12] is Watergrass (Echinochloa). As to the kind of experiment: Pre-Emergent Test, herbicidal effectiveness. Particulars: pre-emergence, 504 h, 33 micrograms per cm^2, 3 weeks, 0-to-100 scale, read-out: Herbicidal Effectiveness, % Control Pre, W. How it is done: as §1, §2

The structures appear in SMILES notation.

Consider `CSc1nnc(CNc2c(C)cccc2C)n1C` [Compound 14A], for which the pest or weed control at 5000 µg/mL, 33 µg/cm2 (in assay [1]; in [2]; in the assay on Wild Oats (Avena fatua) [3]; in assay [4]; in [5]; in the assay with Watergrass (Echinochloa) [6]) was 0% throughout. Moreover, the pest or weed control at 33 µg/cm2 (in assay [7]; in assay [8]; with Wild Oats (Avena fatua) [9]; in assay [10]; in assay [11]; with Watergrass (Echinochloa) [12]) was 0% throughout.
Take `Cc1nnc(CNc2ccccc2C)[nH]1` [Compound 25A]: the pest or weed control at 5000 µg/mL, 33 µg/cm2 (in [1]; in assay [2]; in the assay on Wild Oats (Avena fatua) [3]; in [4]; in [5]; in the assay with Watergrass (Echinochloa) [6]) was 0% each time. Besides, the pest or weed control at 33 µg/cm2 (in [7]; in assay [8]; with Wild Oats (Avena fatua) [9]; in assay [10]; in [11]; with Watergrass (Echinochloa) [12]) was 0% throughout.
In the case of `Cc1cccc(C)c1NCc1nnc[nH]1` [Compound 9A], the pest or weed control at 5000 µg/mL, 33 µg/cm2 (in assay [1]; in assay [2]; in the assay with Wild Oats (Avena fatua) [3]; in assay [4]; in [5]; in the assay with Watergrass (Echinochloa) [6]) was 0% throughout. Moreover, the pest or weed control at 33 µg/cm2 (in assay [7]; in assay [8]; in the assay on Wild Oats (Avena fatua) [9]; in assay [10]; in assay [11]; with Watergrass (Echinochloa) [12]) was 0% in each case.
Turning to `CCc1cccc(C)c1NCc1nnc(SC)n1C` [Compound 21A], the pest or weed control at 5000 µg/mL, 33 µg/cm2 (in assay [1]; in assay [2]; with Wild Oats (Avena fatua) [3]; in [4]; in [5]; in the assay with Watergrass (Echinochloa) [6]) was 0% each time. Also, the pest or weed control at 33 µg/cm2 (in assay [7]; in assay [8]; in the assay with Wild Oats (Avena fatua) [9]; in [10]; in assay [11]; with Watergrass (Echinochloa) [12]) was 0% each time.
In the case of `Cc1cccc(C)c1N(C(=O)CCl)C(C)c1nnc[nH]1` (stereo not drawn) [Compound 12B], the pest or weed control at 5000 µg/mL, 33 µg/cm2 was 65% in assay [1]; 45% in assay [2]; 45% in the assay with Wild Oats (Avena fatua) [3]; 0% in assay [4]; 20% in assay [5]; 80% with Watergrass (Echinochloa) [6]. Further, the pest or weed control at 33 µg/cm2 is 100% in assay [7]; 75% in assay [8]; 97% in the assay on Wild Oats (Avena fatua) [9]; 75% in [10]; 90% in assay [11]; 100% in the assay on Watergrass (Echinochloa) [12].
For the compound `CCc1cccc(C)c1N(Cc1nnc(SC)n1C)C(=O)CCl` [Compound 21B], the pest or weed control at 5000 µg/mL, 33 µg/cm2 (in assay [1]; in assay [2]; with Wild Oats (Avena fatua) [3]; in [4]; in assay [5]; in the assay with Watergrass (Echinochloa) [6]) was 0% in each case. The pest or weed control at 33 µg/cm2 in assay [7] came out at 0%; in assay [8], 0%; in the assay on Wild Oats (Avena fatua) [9], 0%; in assay [10], 0%; in [11], 0%; in the assay with Watergrass (Echinochloa) [12], 98%.
Take `Cc1nnc(CNc2ccc(Cl)c(Cl)c2)[nH]1` [Compound 27A]: the pest or weed control at 5000 µg/mL, 33 µg/cm2 (in assay [1]; in [2]; in the assay on Wild Oats (Avena fatua) [3]; in assay [4]; in [5]; with Watergrass (Echinochloa) [6]) was 0% each time. For the same compound, the pest or weed control at 33 µg/cm2 (in [7]; in assay [8]; in the assay with Wild Oats (Avena fatua) [9]; in [10]; in [11]; with Watergrass (Echinochloa) [12]) was 0% each time.
Regarding `CCc1cccc(CC)c1N(Cc1nnc(SC)n1C)C(=O)CCl` [Compound 23B], the pest or weed control at 5000 µg/mL, 33 µg/cm2 (in assay [1]; in assay [2]; in the assay with Wild Oats (Avena fatua) [3]; in assay [4]; in [5]; in the assay with Watergrass (Echinochloa) [6]) was 0% in each case. Besides, the pest or weed control at 33 µg/cm2 (in [7]; in [8]; in the assay on Wild Oats (Avena fatua) [9]; in assay [10]; in assay [11]; in the assay with Watergrass (Echinochloa) [12]) was 0% in each case.
As for `CCc1nnc(CNc2c(C)cccc2CC)[nH]1` [Compound 15A], the pest or weed control at 5000 µg/mL, 33 µg/cm2 (in assay [1]; in assay [2]; in the assay on Wild Oats (Avena fatua) [3]; in [4]; in assay [5]; in the assay with Watergrass (Echinochloa) [6]) was 0% in each case. Further, the pest or weed control at 33 µg/cm2 (in assay [7]; in assay [8]; in the assay with Wild Oats (Avena fatua) [9]; in [10]; in assay [11]; with Watergrass (Echinochloa) [12]) was 0% each time.
With `CCc1cccc(C)c1NCc1nnc(C(C)C)[nH]1` [Compound 16A], the pest or weed control at 5000 µg/mL, 33 µg/cm2 (in assay [1]; in [2]; with Wild Oats (Avena fatua) [3]; in assay [4]; in assay [5]; in the assay on Watergrass (Echinochloa) [6]) was 0% in each case. In addition, the pest or weed control at 33 µg/cm2 (in assay [7]; in [8]; with Wild Oats (Avena fatua) [9]; in assay [10]; in assay [11]; with Watergrass (Echinochloa) [12]) was 0% each time.
